Key:
SM1 tumors = experiment: CD4+/CD8+ T cell immunodepletion, SM1 model; type: in vivo, mouse; conditions: CD4+ T cell-depleted mice
Description: Single-cell suspensions from tumor and spleen tissue were stained with Live/Dead Zombie NIR (Biolegend, (San Diego, CA)) at 1:1,000 in PBS for 20 min. Cell suspensions were spun down and stained with the following antibodies: APC anti-mouse CD3 (0.5 μg/mL, BD Biosciences (San Jose, CA)), Pacific Blue anti-mouse CD4 ([…], BD Biosciences (San Jose, CA)), BV785 anti-mouse CD8 (0.5 μg/mL, BD Biosciences (San Jose, CA)), PerCP anti-mouse CD25 ([…], BD Biosciences (San Jose, CA)), FITC anti-mouse F4/80 (0.5 μg/mL, BD Biosciences (San Jose, CA)), PeCy7 anti-mouse CD11c (0.5 μg/mL, BD Biosciences (San Jose, CA)), PE anti-mouse NK1.1 (0.5 μg/mL, BD Biosciences (San Jose, CA)), PE anti-mouse DX5 (0.5 μg/mL, BD Biosciences (San Jose, CA)), PerCP-Cy5.5 anti-mouse CD11b (0.5 μg/mL, BD Biosciences (San Jose, CA)). After staining, the cells were washed and fixed (2% formaldehyde), followed by another wash and flow cytometric analysis. The compensation controls were prepared using 0.5 μg/ml. of each antibody with beads UltraComp eBeads™, (ThermoFisher Scientific (Waltham, MA)). […] Flow cytometric data was further analyzed using FlowJo™ analysis software (BD Biosciences (San Jose, CA)). TIL profiles were determined as a measure of TIL subpopulations per gram of tumor tissues or % of total splenocytes. […]

HLA-DRB1 = experiment: qRT-PCR and immunoblot of HLA-DRB1 in melanoma cells; type: cell-based, human; conditions: 250 μM, panel of melanoma cell lines
Description: Cells were lysed on ice in RIPA lysis buffer (25 mM Tris-HCl pH 7.6, 150 mM NaCl, 5 mM EDTA, 1% NP-40 or 1% Triton X-100, 1% sodium deoxycholate, 0.1% SDS in diH2O+protease and phosphatase inhibitors (ThermoFisher Scientific (Waltham, MA)), briefly sonicated, pelleted, and the resulting lysates were normalized by protein concentration using DC assay (BioRad Laboratories, (Hercules, CA)). The indicated samples were subjected to (12%) SDS-PAGE and immunoblot analysis using the indicated antibodies. Immunoblot imaging and analysis was performed using either an Odyssey FC scanner and ImageStudio (LiCor Biosciences, Lincoln, NE) or film.
RNA from cells subjected to the indicated treatments was extracted using Gene Elute Mammalian Total RNA Extraction System (Millipore Sigma (St. Louis, MO)). RNA was reversed transcribed to cDNA using High-Capacity cDNA Reverse Transcription Kit (ThermoFisher Scientific (Waltham, MA)). qRT-PCR analysis was performed using FastStart Universal SYBR Green Master Mix (Rox) (Roche Diagnostics, (Indianapolis, IN)) using a BioRad CFX96 Real-time system (BioRad Laboratories, (Hercules, CA)). The qRT-PCR cycles used were as follows: 95° C. for 10 min, 35 cycles of 95° C. for 15 seconds, 55° C. for 60 seconds, and 72° C. for 30 seconds. Expression of the indicated genes was normalized to histone H3A expression. […]

SM1 melanoma tumors = SM1 melanoma tumors in C57BL/6 mice fed control or L-fucose water; type: in vivo, mouse
Description: Tumors of SW1 or SMI melanoma cells from C3H/HeJ or C57BL/6 mice, respectively) were digested using 1× tumor digest buffer (0.5 mg/ml. Collagenase I, 0.5 mg/ml. Collagenase IV, 0.25 mg/ml. Hyalyronidase V. 0.1 mg/ml. DNAse I in HBSS (Millipore Sigma (St. Louis, MO)). Tumors were homogenized using the Miltenyi MACs dissociator. Red blood cells were lysed using ACK lysis buffer (Life Technologies, (Grand Island, NY)). Tumor homogenate cells were counted using a standard hemocytometer. (7) Flow Cytometry (a) TIL Profiling:
Single-cell suspensions from tumor and spleen tissue were stained with Live/Dead Zombie NIR (Biolegend, (San Diego, CA)) at 1:1,000 in PBS for 20 min. Cell suspensions were spun down and stained with the following antibodies: APC anti-mouse CD3 (0.5 μg/mL, BD Biosciences (San Jose, CA)), Pacific Blue anti-mouse CD4 ([…], BD Biosciences (San Jose, CA)), BV785 anti-mouse CD8 (0.5 μg/mL, BD Biosciences (San Jose, CA)), PerCP anti-mouse CD25 ([…], BD Biosciences (San Jose, CA)), FITC anti-mouse F4/80 (0.5 μg/mL, BD Biosciences (San Jose, CA)), PeCy7 anti-mouse CD11c (0.5 μg/mL, BD Biosciences (San Jose, CA)), PE anti-mouse NK1.1 (0.5 μg/mL, BD Biosciences (San Jose, CA)), PE anti-mouse DX5 (0.5 μg/mL, BD Biosciences (San Jose, CA)), PerCP-Cy5.5 anti-mouse CD11b (0.5 μg/mL, BD Biosciences (San Jose, CA)). After staining, the cells were washed and fixed (2% formaldehyde), followed by another wash and flow cytometric analysis. The compensation controls were prepared using 0.5 μg/ml. of each antibody with beads UltraComp eBeads™, (ThermoFisher Scientific (Waltham, MA)). All samples were subject to flow cytometric analysis using a LSR Flow Cytometer (BD Biosciences (San Jose, CA)). Flow cytometric data was further analyzed using FlowJo™ analysis software (BD Biosciences (San Jose, CA)). TIL profiles were determined as a measure of TIL subpopulations per gram of tumor tissues or % of total splenocytes.
FFPE mouse tumor sections were immunostained with FITC-conjugated AAL lectin (0.4 μg/mL, Vector Laboratories (Burlingame, CA)), rabbit anti-Mart-1 (0.2 μg/mL, Millipore Sigma (St. Louis, MO), and rabbit anti-S100 (0.2 μg/mL, Agilent Technologies (Santa Clara, CA)), followed by AlexaFluor 594 donkey anti-rabbit secondary antibody (0.05 μg/mL, ThermoFisher Scientific (Waltham, MA)). The slides were mounted with VECTASHIELD®+DAPI (Vector Laboratories (Burlingame, CA)). Microscopy images were acquired using a Keyence BZ-X710 microscope (Osaka, Japan), and images were measured for AAL-positive signal within MARTI-/S 100-positive regions (designated as melanoma regions of interest) using FIJI software (NIH). Statistical analysis was performed using GraphPad Prism™ (San Diego, CA).
Four-to-six-week-old female C3HeN and male C57BL6 mice were purchased from Charles Rivers Laboratories for the indicated experiments. Four-to-six-week-old male NSG mice from the Lau laboratory breeding colony were used for the indicated experiments. Mice were housed in the Comparative Medicine Facility at H. Lee Moffitt Cancer Center and Research Institute. Mouse tumor volumes were measured using length, width and depth divided by 2. Generally, 10 mice were assigned to each indicated treatment cohort, and 1×10^6 melanoma cells were subcutaneously injected into the right rear flanks of the recipient mice. At each experimental endpoint, mice were humanely euthanized using CO2 inhalation in accordance to the American Veterinary Medical Association guidelines. […] All experiments were approved by the Institutional Animal Care and Use Committee (IACUC) in accordance with the National Research Council guidelines.
SW1 or SMI mouse melanoma cells were injected into syngeneic C3H/HeN (or NSG) female or C57BI/6 male mice, respectively. […]

[1] = 100 mM L-fucose in drinking water

C[C@H](O)[C@@H](O)[C@@H](O)[C@H](O)C=O [L-fucose]
L-fuc-triggered suppression of SM1 tumors and TIL increases (SM1 tumors): abrogated | HLA-DRB1 mRNA and protein levels (HLA-DRB1): neither HLA-DRB1 mRNA nor protein levels were altered | decreased tumor volume (SM1 melanoma tumors; [1]): ~60% | increase in tumor fucosylation (SM1 melanoma tumors; [1]): ~4 fold | absolute counts of each TIL subpopulation (SM1 melanoma tumors; flow cytometry): significantly increased | increase in CD3+ T cell subpopulation (SM1 melanoma tumors; flow cytometry): ~15 fold | increase in CD4+ and CD8+ T cells (SM1 melanoma tumors; flow cytometry): 10-100 fold | increase in total TILs (SM1 melanoma tumors; flow cytometry): ~10 fold | splenic lymphocyte profiles (SM1 melanoma tumors; flow cytometry): did not significantly alter
